# Several values for one entry are separate records, joined by “and”; a condition that tells them apart may be missing. Equal values may be shown once. Entries after “also recorded” stand apart in the source; their conditions may differ.
# Legend:
# [1] = system: fluoroquinolone-resistant, methicillin-resistant Staphylococcus aureus (K950); experiment: NZW rabbit keratitis model, corneal colony counts; assay type: in vivo; conditions: for Log10 CFU/ml, Median / Log10 CFU/ml Maximum / Log10 CFU/ml Minimum / Log10 CFU/ml, Mean: 6 corneas; for Mean Rank, Kruskal-Wallis ANOVA with Duncan Multiple Comparisons Test - Log10 CFU/ml / Statistical comparison of colony counts between groups (< = significantly fewer colony counts): P = 0.05; for Log10 CFU/ml Maximum / Log10 CFU/ml Minimum / Log10 CFU/ml, Mean: Descriptive Statistics; for Reduction of colony counts compared with the Saline Control: corneal epithelium intact or removed; for Log10 CFU/ml: individual corneas (Row 1-6; K-3, K-4); for CFU/ml: individual corneas (Row 1-6; Ker-3, Ker-4)
# Description: (§1) One purpose of the following experiments was to compare the efficacy of 1% Oligomer 2, 0.5% Oligomer 2, and 5% vancomycin in the treatment of a fluoroquinolone-resistant, methicillin-resistant Staphylococcus aureus infection in the NZW rabbit keratitis model with or without intact corneal epithelia.
# Nothing was done to the right eyes.
# as §1, with “0.25%” for “1%”, “with and without 0.005% benzalkonium chloride,” for “0.5% Oligomer 2,”, “epithelia. The 0.005% benzalkonium chloride has been added to try to increase the penetration of 0.25% Oligomer 2 through the corneal epithelium.” for “epithelia.”
# One purpose of the following experiments was to determine the efficacy of 0.25% Oligomer 4, with and without 200 μM Farnesol, and 200 μM Farnesol in the treatment of a fluoroquinolone-resistant and methicillin-resistant Staphylococcus aureus infection in the NZW rabbit keratitis model with or without intact corneal epithelia. The 200 μM Farnesol has been added to try to increase the efficacy and penetration of 0.25% Oligomer 4 through the corneal epithelium.
# [2] = Draize ocular toxicity scoring, NZW rabbit ocular toxicity model; assay type: in vivo; set-up: key to MMTS / Score (Draize total): Draize total score of cornea, iris and conjunctivae; maximum 110; III. B. Chemosis / I. A. Cornea opacity / I. B. Area of cornea involved / II. A. Iris / III. A. Conjunctivae redness / III. C. Discharge: scale not given here
# Description: The ocular toxicity of several concentrations of Oligomer 2, using the Draize ocular toxicity scoring system, in the NZW rabbit ocular toxicity model was carried out.
# (§2) Rabbits were treated in both eyes with (37 μl) topical drops every 30 minutes for 3 hours (7 total doses). One rabbit was treated with Tris-Buffered Saline and served as a negative control. Rabbits were evaluated in a masked fashion for ocular toxicity by an ophthalmologist with specialty training in corneal and external disease. Ocular toxicity was evaluated using the Draize scoring system after treatment on Day 0 and on Day 3 post treatment for any delayed toxicity. (Draize et al., J. Pharmacol. Exp. Ther., 1944, 82, 377-390).
# A brief summary of the Draize scoring system for ocular lesions is provided below
# Total Maximum Score: 110 represents the sum of all scores obtained for the cornea, iris and conjunctivae.
# The ocular toxicity of several formulations of Oligomer 4 with and without farnesol, using the Draize ocular toxicity scoring system, in the NZW rabbit ocular toxicity model was carried out.
# as §2, with “external disease 30 minutes after the final dose.” for “external disease.”, “system (see above)” for “system”, “Day 2” for “Day 3”, “toxicity.” for “toxicity. (Draize et al., J. Pharmacol. Exp. Ther., 1944, 82, 377-390).”
# P. aeruginosa ATCC 10145 = experiment: MIC, laboratory strains (Example 8); assay type: cell-based
# [3] = 100 μM Farnesol in 1% PG and TBS, Day 0
# [4] = 100 μM Farnesol in 1% PG and TBS, Day 0, per eye
# [5] = 100 μM Farnesol in 1% PG and TBS, Day 2
# [6] = 100 μM Farnesol in 1% PG and TBS, Day 2, per eye
# [7] = 100 μM in 1% Propylene Glycol (PG) and TBS, Day 0
# [8] = 100 μM in 1% Propylene Glycol (PG) and TBS, Day 2
# [9] = 200 μM Farnesol in 1% PG and TBS, Day 0
# [10] = 200 μM Farnesol in 1% PG and TBS, Day 0, per eye
# [11] = 200 μM Farnesol in 1% PG and TBS, Day 2
# [12] = 200 μM Farnesol in 1% PG and TBS, Day 2, per eye
# [13] = 200 μM in 1% Propylene Glycol (PG) and TBS, Day 0
# [14] = 200 μM in 1% Propylene Glycol (PG) and TBS, Day 2
smiles,measurement,setting,value
CC(C)=CCCC(C)=CCCC(C)=CCO [Farnesol],"Log10 CFU/ml, Median",[1]; Abraded Epithelium,6.849 Log10 CFU/ml and 6.8489 Log10 CFU/ml
same,"Log10 CFU/ml, Median",[1]; Intact Epithelium,7.3000 Log10 CFU/ml
same,"Mean Rank, Kruskal-Wallis ANOVA with Duncan Multiple Comparisons Test - Log10 CFU/ml",[1]; Abraded Epithelium,23.5000
same,Statistical comparison of colony counts between groups (< = significantly fewer colony counts),[1]; Abraded Epithelium,PMX = P + F < ONSET < FARN = CON
same,"Effect of Abraded Epithelium on Effectiveness of Each Test Solution (colony counts, < = significantly fewer)","[1]; Abraded vs. Intact Epithelium, Mann-Whitney Test",FARN-AE < FARN-IE; also recorded: Abraded < Intact
same,Log10 CFU/ml Maximum,[1]; Abraded Epithelium,6.916 Log10 CFU/ml
same,Log10 CFU/ml Minimum,[1]; Abraded Epithelium,6.109 Log10 CFU/ml
same,"Log10 CFU/ml, Mean",[1]; Abraded Epithelium,6.626 Log10 CFU/ml
same,Log10 CFU/ml Maximum,[1]; Intact Epithelium,7.6551 Log10 CFU/ml
same,Log10 CFU/ml Minimum,[1]; Intact Epithelium,7.1818 Log10 CFU/ml
same,"Log10 CFU/ml, Mean",[1]; Intact Epithelium,7.3624 Log10 CFU/ml
same,"Effect of Abraded Epithelium on Effectiveness of Each Test Solution (colony counts, abraded vs. intact)","[1]; Example 11, Mann-Whitney test, < = significantly fewer colony counts",Abraded = Intact
same,"Point estimate for ETA1-ETA2 (Mann-Whitney, Log10 CFU/ml), Intact minus Abraded Epithelium",[1]; IE Log vs AE Log of the same test solution,Point estimate for ETA1-ETA2 is 0.5964
same,"Mean Rank, Kruskal-Wallis ANOVA with Duncan Multiple Comparisons Test - Log10 CFU/ml",[1]; Intact Epithelium,22.1667
same,Statistical comparison of colony counts between groups (< = significantly fewer colony counts),[1]; Intact Epithelium,ONSET = PMX = P + F < FARN = CON
same,Statistical comparison of corneal colony counts (< = significantly fewer colony counts),"[1]; Ker-3 (Example 11), abraded epithelium, 21 doses",PMX═P+F═ONSET<FARN═CON
same,Statistical comparison of corneal colony counts (< = significantly fewer colony counts),"[1]; Ker-3 (Example 11), intact epithelium, 21 doses",ONSET=PMX═P+F<FARN═CON
same,Reduction of colony counts compared with the Saline Control,[1]; Ker-3,NOT effective
same,"Colony counts, corneal epithelium removed compared with intact epithelium",[1]; Ker-4,significantly fewer colony counts in eyes with the corneal epithelium removed
same,Statistical comparison of corneal colony counts (< = significantly fewer colony counts),"[1]; Ker-4 (Example 12), abraded epithelium",PMX═P+F<ONSET<FARN═CON
same,Statistical comparison of corneal colony counts (< = significantly fewer colony counts),"[1]; Ker-4 (Example 12), intact epithelium",ONSET=PMX═P+F<FARN═CON
same,Reduction of colony counts compared with the Saline Control,[1]; Ker-4,not effective
same,Log10 CFU/ml,[1]; Abraded Epithelium,6.875 Log10 CFU/ml and 6.109 Log10 CFU/ml and 6.146 Log10 CFU/ml and 6.889 Log10 CFU/ml and 6.823 Log10 CFU/ml and 6.916 Log10 CFU/ml
same,Log10 CFU/ml,[1]; Intact Epithelium,7.182 Log10 CFU/ml and 7.259 Log10 CFU/ml and 7.479 Log10 CFU/ml and 7.655 Log10 CFU/ml and 7.27 Log10 CFU/ml and 7.33 Log10 CFU/ml
same,CFU/ml,[1]; Abraded Epithelium,7500000 CFU/ml and 1285000 CFU/ml and 1400000 CFU/ml and 7750000 CFU/ml and 6650000 CFU/ml and 8250000 CFU/ml
same,CFU/ml,[1]; Intact Epithelium,15200000 CFU/ml and 18150000 CFU/ml and 30100000 CFU/ml and 45200000 CFU/ml and 18600000 CFU/ml and 21400000 CFU/ml
same,Classification of eye irritation,[2]; [3],Non-Irritating
same,MMTS,[2]; [3],0.0
same,MMTS classification symbol,[2]; [3],N (0.0-0.5 Non-Irritating)
same,I. A. Cornea opacity,[2]; [4],0
same,I. B. Area of cornea involved,[2]; [4],0
same,"I. Tot (cornea, A × B × 5)",[2]; [4],0
same,II. A. Iris,[2]; [4],0
same,"II. Tot (iris, A × 5)",[2]; [4],0
same,III. A. Conjunctivae redness,[2]; [4],0
same,III. B. Chemosis,[2]; [4],0
same,III. C. Discharge,[2]; [4],0
same,"III. Tot (conjunctivae, (A + B + C) × 2)",[2]; [4],0
same,Score (Draize total),[2]; [4],0
same,MMTS,[2]; [5],1.5
same,MMTS classification symbol,[2]; [5],PN (0.6-2.5 Practically Non-Irritating)
same,I. A. Cornea opacity,[2]; [6],0
same,I. B. Area of cornea involved,[2]; [6],0
same,"I. Tot (cornea, A × B × 5)",[2]; [6],0
same,II. A. Iris,[2]; [6],0
same,"II. Tot (iris, A × 5)",[2]; [6],0
same,III. A. Conjunctivae redness,[2]; [6],0
same,III. B. Chemosis,[2]; [6],0
same,MMTS,[2]; [7],0.0
same,MMTS classification,[2]; [7],N (0.0-0.5 Non-Irritating)
same,MMTS,[2]; [8],1.5
same,MMTS classification,[2]; [8],PN (0.6-2.5 Practically Non-Irritating)
same,Classification of eye irritation,[2]; [9],Non-Irritating
same,MMTS,[2]; [9],0.5
same,MMTS classification symbol,[2]; [9],N (0.0-0.5 Non-Irritating)
same,I. A. Cornea opacity,[2]; [10],0
same,I. B. Area of cornea involved,[2]; [10],0
same,"I. Tot (cornea, A × B × 5)",[2]; [10],0
same,II. A. Iris,[2]; [10],0
same,"II. Tot (iris, A × 5)",[2]; [10],0
same,III. A. Conjunctivae redness,[2]; [10],0
same,III. B. Chemosis,[2]; [10],0
same,Classification of eye irritation,[2]; [11],Non-Irritating
same,MMTS,[2]; [11],0.5
same,MMTS classification symbol,[2]; [11],N (0.0-0.5 Non-Irritating)
same,I. A. Cornea opacity,[2]; [12],0
same,I. B. Area of cornea involved,[2]; [12],0
same,"I. Tot (cornea, A × B × 5)",[2]; [12],0
same,II. A. Iris,[2]; [12],0
same,"II. Tot (iris, A × 5)",[2]; [12],0
same,III. A. Conjunctivae redness,[2]; [12],0
same,III. B. Chemosis,[2]; [12],0
same,MMTS,[2]; [13],0.5
same,MMTS classification,[2]; [13],N (0.0-0.5 Non-Irritating)
same,MMTS,[2]; [14],0.5
same,MMTS classification,[2]; [14],N (0.0-0.5 Non-Irritating)
N=C(N)NCCCCC(=O)Nc1cc(C(F)(F)F)cc(NC(=O)c2cc(C(=O)Nc3cc(C(F)(F)F)cc(NC(=O)CCCCNC(=N)N)c3SCCN)ncn2)c1SCCN [Oligomer 2],Statistical comparison of corneal colony counts (< = significantly fewer colony counts),"[1]; Ker-1 (Example 9), abraded (removed) epithelium, drops every 15 min, 19 doses",effective
same,Statistical comparison of corneal colony counts (< = significantly fewer colony counts),"[1]; Ker-2 (Example 10), abraded (removed) epithelium, drops every 15 min, 21 doses",effective
same,Effect of addition of 0.005% benzalkonium chloride (BAK) on penetration through the intact corneal epithelium,"[1]; Ker-2, 0.25% Oligomer 2",did not aid in the penetration
same,Penetration of the corneal epithelium into the corneal stroma,[1]; in vivo,does not penetrate the corneal epithelium
same,I. A. Cornea opacity,"[2]; NZW, rabbit, in vivo, 0 day",0
same,I. B. Area of cornea involved,"[2]; NZW, rabbit, in vivo, 0 day",0
same,"I. Tot (cornea, A × B × 5)","[2]; NZW, rabbit, in vivo, 0 day",0
same,I. A. Cornea opacity,"[2]; NZW, rabbit, in vivo, 3 day",0
same,I. B. Area of cornea involved,"[2]; NZW, rabbit, in vivo, 3 day",0
same,"I. Tot (cornea, A × B × 5)","[2]; NZW, rabbit, in vivo, 3 day",0
same,II. A. Iris,"[2]; NZW, rabbit, in vivo, 3 day",0
same,"II. Tot (iris, A × 5)","[2]; NZW, rabbit, in vivo, 3 day",0
same,III. A. Conjunctivae redness,"[2]; NZW, rabbit, in vivo, 3 day",0
same,III. B. Chemosis,"[2]; NZW, rabbit, in vivo, 3 day",0
same,III. C. Discharge,"[2]; NZW, rabbit, in vivo, 3 day",0
same,"III. Tot (conjunctivae, (A + B + C) × 2)","[2]; NZW, rabbit, in vivo, 3 day",0
same,Score (Draize total),"[2]; NZW, rabbit, in vivo, 3 day",0
same,Dose dependence of ocular toxicity,"[2]; rabbit, in vivo",dose dependent ocular toxicity
same,Stinging / acute reactions upon instillation,"[2]; rabbit, in vivo",does not sting upon instillation
N=C(N)NCCCCC(=O)Nc1cc(C(F)(F)F)cc(NC(=O)c2cnc(C(=O)Nc3cc(C(F)(F)F)cc(NC(=O)CCCCNC(=N)N)c3SCCN)cn2)c1SCCN [Oligomer 5],MIC,P. aeruginosa ATCC 10145,> 100 µg/mL
